Tests used:
Nrf2 = assay: ARE-pGL3 (Nrf2-responsive) luciferase reporter analysis in tBHQ-treated lung cancer cells; format: cell-based
Experimental: Lung cancer cells (H1299) purchased from American Type Culture Collection (ATCC, CRL-5803™) were cultured in Dulbecco's modified Eagle's medium (DMEM) enriched with 10% fetal bovine serum (FBS), 100 μg/ml of streptomycin, and 100 unit/ml of penicillin, under conditions of 5% CO2 and a temperature of 37° C.
Then, the cells were transformed by using Lipofectamine 2000 (In vitrogen, Life technologies, USA) (i.e., a plasmid transfection reagent used in DMEM) so that an antioxidant response element (ARE)-pGL3 luciferase plasmid to which an Nrf2 transcription factor can bind was introduced to the cells, according to the manufacturer's instructions.
About 20,000 of the transformed cells were inoculated in each well of a 96-well plate, and then, the cells were cultured for 24 hours under the same conditions described above. Afterwards, tertiary butylhydroquinone (tBHQ) that activates ARE was added to each well. Accordingly, it was confirmed that activity of luciferase was increased at least about 3 times as large as activity of luciferase in cells that were not treated with tBHQ.
Next, the tBHQ-treated cells were additionally treated with 2-(5-bromonaphthalene-1-yl)benzo[d]oxazole-5-amine (ChemBridge, cat#5721754, San Diego, Calif., USA) (Derivative #1) in concentration of 1 μM, 5 μM, and 10 μM, and then, were incubated for 18 hours. […]

[1] = system: lung cancer cells (H1299); assay: CCK-8 cell viability analysis (cytotoxicity of the derivative alone); format: cell-based; conditions: 1 μM, 5 μM and 10 μM, FIG. 2
Excerpt: (§1) Here, in order to confirm that the inhibitory activity of luciferase was caused by an Nrf2 inhibitor, rather than by apoptosis of the cells, cell counting kit-8 (CCK-8) (Dojindo, Japan) for the determination of cell viability and a spectroscopic device (Labsystems, USA) were used to measure absorbance values of the cells at a wavelength of 480 nm.
as §1, with “by” for “by an”, “inhibitors, i.e., Derivative #2 to #10,” for “inhibitor,”, “CCK-8” for “cell counting kit-8 (CCK-8)”

Nrf2 protein = target: T1, Nrf2 protein (Homo sapiens, UniProt Q16236); assay: Western blot of Nrf2 protein in tBHQ-treated lung cancer cells; format: cell-based; conditions: 5 μM or 10 μM, 2 hours, FIG. 5
T1 construct: endogenous in cells
T1 sequence (Q16236 1-605): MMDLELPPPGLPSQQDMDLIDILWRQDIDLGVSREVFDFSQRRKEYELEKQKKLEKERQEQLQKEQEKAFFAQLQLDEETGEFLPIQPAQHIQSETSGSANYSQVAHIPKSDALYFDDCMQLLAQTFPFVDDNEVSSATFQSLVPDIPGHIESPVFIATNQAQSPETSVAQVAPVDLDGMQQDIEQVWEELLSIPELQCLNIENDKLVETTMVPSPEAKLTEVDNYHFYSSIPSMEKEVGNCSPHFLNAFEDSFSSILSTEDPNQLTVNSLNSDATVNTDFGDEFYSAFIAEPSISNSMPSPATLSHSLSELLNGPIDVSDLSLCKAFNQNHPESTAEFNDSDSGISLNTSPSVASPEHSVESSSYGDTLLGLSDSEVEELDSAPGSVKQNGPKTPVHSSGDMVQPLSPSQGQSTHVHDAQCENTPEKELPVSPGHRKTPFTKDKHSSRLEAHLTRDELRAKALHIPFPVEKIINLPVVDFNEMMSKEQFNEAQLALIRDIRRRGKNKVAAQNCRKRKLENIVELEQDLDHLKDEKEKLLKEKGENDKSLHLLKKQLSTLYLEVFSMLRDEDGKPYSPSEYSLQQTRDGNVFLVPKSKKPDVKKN
Experimental: (§2) By using a western blot, it was confirmed whether 2-(5-bromonaphthalene-1-yl)benzo[d]oxazole-5-amine (Derivative #1), which is a Nrf2 inhibitor, has targeted a Nrf2 protein and its downstream antioxidant enzyme heme oxygenase (HO)-1, based on the inhibitory activity of the ARE-pGL3 luciferase.
(§3) The lung cancer cells were treated with 2-(5-bromonaphthalene-1-yl)benzo[d]oxazole-5-amine (Derivative #1) in a concentration of about 5 μM or about 10 μM, and 2 hours later, the protein expression was analyzed to measure amounts of Nrf2 and HO-1 proteins, which were increased by tBHQ treatment.
(§4) First, the cells treated with 2-(5-bromonaphthalene-1-yl)benzo[d]oxazole-5-amine (Derivative #1) were obtained, and then, cytosolic fractions were obtained therefrom by using a method commonly used in the art.
(§5) The cytosolic fractions were separated by electrophoresis using 10% gradient SDS-PAGE, and then, were transferred to a nitrocellulose membrane (BioRad, Hercules, Calif., USA). The membrane was blocked with 5% skim milk, and then, a reaction with primary antibodies, e.g., anti-Nrf2 (Abcam, USA) and an HO-1 antibody (Oncogene Research Products, USA), was allowed. […]

heme oxygenase (HO)-1 = assay: Western blot of HO-1 protein in tBHQ-treated lung cancer cells; format: cell-based; conditions: 5 μM or 10 μM, 2 hours, FIG. 5
Experimental: as §2, §3, §4, §5

[2] = system: lung cancer cells (H1299); assay: ROS production by DCF-DA staining and FACS, combined with irradiation; format: cell-based
Experimental: The lung cancer cells (H1299) that were cultured in the same manner as in Example 1 were treated with dihydrodichlorofluorescein diacetate (DCF-DA, Sigma, USA) and were subjected to fluorescence staining. The stained cells were then treated with 2-(5-bromonaphthalene-1-yl)benzo[d]oxazole-5-amine (Derivative #1) for 2 hours in a concentration of 5 μM or 10 μM, and 5 Gy of irradiation. Afterwards, an increase in ROS production upon inhibition of Nrf2 was analyzed by FACS.
In addition, in order to confirmed whether the values measured by FACS analysis refer to the ROS production, the lung cancer cells (H1299) were treated with 2 mM of N-acetyl-L-cysteine (NAC), which is a ROS inhibitor, and then, were treated in combination with 2-(5-bromonaphthalene-1-yl)benzo[d]oxazole-5-amine (Derivative #1) in a concentration of 10 μM and irradiation. As a result, it was confirmed that the ROS production was inhibited.

[3] = system: lung cancer cells (H1299); assay: Colony-forming assay with gamma irradiation, lung cancer cells; format: cell-based; conditions: H1299, 1 μM to 10 μM for 2 hours, gamma radiation, 7 days, FIG. 8
Experimental: (§6) Lung cancer cells (H1299, ATCC, CRL-5803™), brain cancer cells (U87MG, ATCC, HTB-14™ human glioblastoma), breast cancer cells (MDA-MB231, ATCC, HTB-26™ human breast adenocarcinoma), and colorectal cancer cells (HCT116, ATCC, CCL-247™ human colorectal carcinoma) were each inoculated in each well of a 96-well plate containing Rosewell Park Memorial Institute medium (RPMI) 1640 enriched with 10% FBS, 100 μg/ml of streptomycin, and 100 unit/ml of penicillin. Then, these cells were each treated with 2-(5-bromonaphthalene-1-yl)benzo[d]oxazole-5-amine (Derivative #1) for 2 hours in a concentration of 1 μM to 10 μM, were irradiated using gamma radiation according to radiation dose, and were cultured for 7 days under conditions of 5% CO2 and a temperature of 37° C. The cultured cells were washed out with phosphate buffered saline (PBS), and then, were stained with a mixture of 1% methylene blue and 100% methanol. Afterwards, a number of colony-forming cells was counted, and all the treatment above were repeatedly performed 3 times.

[4] = system: brain cancer cells (U87MG); assay: Colony-forming assay with gamma irradiation, brain cancer cells; format: cell-based, human; conditions: 1 μM to 10 μM for 2 hours, gamma radiation, 7 days, FIG. 9
Experimental: as §6

[5] = system: breast cancer cells (MDA-MB231); assay: Colony-forming assay with gamma irradiation, breast cancer cells; format: cell-based, human; conditions: MDA-MB231, 1 μM to 10 μM for 2 hours, gamma radiation, 7 days, FIG. 10
Experimental: as §6

[6] = system: colorectal cancer cells (HCT116); assay: Colony-forming assay with gamma irradiation, colorectal cancer cells; format: cell-based, human; conditions: HCT116, 1 μM to 10 μM for 2 hours, gamma radiation, 7 days, FIG. 11
Experimental: as §6

[7] = system: lung cancer cell strain (H1299); assay: CCK-8 analysis after derivative plus doxorubicin (anticancer agent sensitivity); format: cell-based; conditions: 48 hours, FIG. 13
Experimental: In order to confirm whether the above-described benzo[d]oxazole derivative that increases the apoptotic effects of ROS also have such apoptotic effects when the benzo[d]oxazole derivative is used in combination with, other than radiation, an anticancer agent to produce ROS, the synthesized benzo[d]oxazole derivative was treated in combination with doxorubicin, which is an anticancer agent.
The lung cancer cell strain (H1299) was treated with each of the synthesized benzo[d]oxazole derivatives (Derivatives #1 to #10) for 2 hours in a concentration of 10 μM, and then, were treated with doxorubicin in a concentration of 150 nM. After 48 hours of the treatment, CCK-8 for the determination of cell viability was used to measure the lung cancer cells that were died by apoptosis.

Question: Nc1ccc2oc(-c3cccc4c(Br)cccc34)nc2c1 [Derivative #1, 2-(5-bromonaphthalene-1-yl)benzo[d]oxazole-5-amine] was tested. Which “inhibitory activity of ARE-responsive luciferase” value (Nrf2; tBHQ-treated H1299, 1 μM, 5 μM and 10 μM, 18 hours, FIG. 1) did it give?
Answer: Its value is “dependent upon concentration”.

Question: And the “cytotoxicity (CCK-8 viability)” value [1]?
Answer: The value was “no cytotoxicity”.

Question: And the “amount of Nrf2 protein increased by tBHQ treatment” value (Nrf2 protein)?
Answer: Its value is “reduced depending on the concentration”.

Question: And the “amount of HO-1 protein increased by tBHQ treatment” value (heme oxygenase (HO)-1)?
Answer: Its value is “reduced depending on the concentration”.

Question: What about the “ROS production relative to 5 Gy of irradiation only” value ([2]; H1299, 5 μM for 2 hours plus 5 Gy irradiation) of the same molecule?
Answer: Its value is “about 3.5 times”.

Question: What about the “ROS production relative to 5 Gy of irradiation only” value ([2]; H1299, 10 μM for 2 hours plus 5 Gy irradiation) of the same molecule?
Answer: Its value is roughly 4.6 times.

Question: And the “apoptotic effects on cancer cells by irradiation (colony-forming cells)” value (shortened to “apoptotic effects on cancer cells”) [3]?
Answer: The value was “increased apoptotic effects”.

Question: And the “apoptotic effects on cancer cells” value [4]?
Answer: The value was “increased apoptotic effects”.

Question: And the “apoptotic effects on cancer cells” value [5]?
Answer: The value was “increased apoptotic effects”.

Question: And the “apoptotic effects on cancer cells” value [6]?
Answer: Its value is “increased apoptotic effects”.

Question: What about the “apoptotic cell death relative to control group” value ([7]; H1299, derivative 10 μM for 2 hours then doxorubicin 150 nM) of the same molecule?
Answer: The value was “about 3.7 times”.

Question: Which “ROS production after ROS inhibitor treatment” value ([2]; H1299, 2 mM NAC, then Derivative #1 10 μM plus irradiation) does the source give for CC(=O)N[C@@H](CS)C(=O)O [NAC, N-acetyl-L-cysteine, reference compound] here?
Answer: The value was “inhibited”.

Question: With COc1cccc2c1C(=O)c1c(O)c3c(c(O)c1C2=O)C[C@@](O)(C(=O)CO)C[C@@H]3O[C@H]1C[C@H](N)[C@H](O)[C@H](C)O1 [doxorubicin, reference compound] as the molecule, how does the “apoptotic cell death relative to control group” value ([7]; H1299, doxorubicin 150 nM only) read?
Answer: Its value is “about 1.35 times”.

Question: How did the “activity of luciferase relative to cells not treated with tBHQ” value (Nrf2; ARE-pGL3 transformed H1299 cells, tBHQ added to each well) turn out when CC(C)(C)c1cc(O)ccc1O [tBHQ, tertiary butylhydroquinone, reference compound] was run?
Answer: The value was “at least 3 times”.

Source: patent US9447054B2, “Anticancer supplement agent including benzo[D]oxazol derivative as effective ingredient” (KOREA INSTITUTE OF RADIOLOGICAL & MEDICAL SCIENCES, priority 2014, dated 2016)
